Read-outs that look alike come from different tables or passages of the source.
Key:
[1] = molecular target: EGFR Del19/T790M/C797S (Homo sapiens, UniProt P00533, C797S/DEL746-750/T790M); test: Biochemical EGFR kinase inhibition assay (Lance Ultra TR-FRET), triple mutant del19/T790M/C797S
How it was run: (§1)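 Kinase activity is measured by TR-FRET phosphopeptide detection. Compounds span 0.003 μM to 10 μM; the 1 h reaction at room temperature is quenched with EDTA, then labelled antibody (2 nM) is incubated 60 min before reading.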

[2] = molecular target: EGFR L858R/C797S (Homo sapiens, UniProt P00533, C797S/L858R); test: Biochemical EGFR kinase inhibition assay (Lance Ultra TR-FRET), double mutant L858R/C797S
EGFR L858R/C797S, sequence (P00533 25-1210 C797S/L858R): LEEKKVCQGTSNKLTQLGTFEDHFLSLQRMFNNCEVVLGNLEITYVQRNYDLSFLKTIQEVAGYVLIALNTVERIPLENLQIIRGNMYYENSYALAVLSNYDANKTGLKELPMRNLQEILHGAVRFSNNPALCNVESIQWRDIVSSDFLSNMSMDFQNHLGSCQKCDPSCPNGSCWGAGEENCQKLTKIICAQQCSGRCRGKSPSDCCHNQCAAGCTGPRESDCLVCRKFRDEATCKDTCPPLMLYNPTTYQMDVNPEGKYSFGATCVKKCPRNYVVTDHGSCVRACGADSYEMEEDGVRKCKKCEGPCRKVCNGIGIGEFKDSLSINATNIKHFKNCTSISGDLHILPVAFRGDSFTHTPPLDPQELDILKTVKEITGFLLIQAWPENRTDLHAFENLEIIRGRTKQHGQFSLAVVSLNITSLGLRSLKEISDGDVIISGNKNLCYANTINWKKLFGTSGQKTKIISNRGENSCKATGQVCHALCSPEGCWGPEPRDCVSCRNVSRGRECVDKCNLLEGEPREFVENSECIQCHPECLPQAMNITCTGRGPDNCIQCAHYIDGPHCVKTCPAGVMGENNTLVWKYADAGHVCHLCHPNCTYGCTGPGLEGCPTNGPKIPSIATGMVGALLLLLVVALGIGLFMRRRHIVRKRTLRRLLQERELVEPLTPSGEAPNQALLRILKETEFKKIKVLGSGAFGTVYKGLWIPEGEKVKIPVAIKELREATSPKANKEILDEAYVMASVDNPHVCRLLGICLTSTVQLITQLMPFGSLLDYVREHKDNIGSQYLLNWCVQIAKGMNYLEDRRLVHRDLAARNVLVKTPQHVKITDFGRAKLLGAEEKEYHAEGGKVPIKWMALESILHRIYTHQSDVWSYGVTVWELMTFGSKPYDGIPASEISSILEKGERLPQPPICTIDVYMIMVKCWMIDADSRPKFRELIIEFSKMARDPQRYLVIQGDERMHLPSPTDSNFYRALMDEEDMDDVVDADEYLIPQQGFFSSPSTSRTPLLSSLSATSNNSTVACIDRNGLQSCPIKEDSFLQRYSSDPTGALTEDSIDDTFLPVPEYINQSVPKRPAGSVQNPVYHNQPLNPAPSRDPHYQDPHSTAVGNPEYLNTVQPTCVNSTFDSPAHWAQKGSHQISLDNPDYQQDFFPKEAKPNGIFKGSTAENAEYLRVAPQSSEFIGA
How it was run: as §1

[3] = molecular target: EGFR L858R/T790M/C797S (Homo sapiens, UniProt P00533, C797S/L858R/T790M); test: Biochemical EGFR kinase inhibition assay (Lance Ultra TR-FRET), triple mutant L858R/T790M/C797S
How it was run: as §1

[4] = molecular target: EGFR Del19/C797S (Homo sapiens, UniProt P00533, C797S/DEL746-750); test: Biochemical EGFR kinase inhibition assay (Lance Ultra TR-FRET), double mutant del19/C797S
EGFR Del19/C797S, sequence (P00533 with tags, fused parts or gaps DEL746-750/C797S): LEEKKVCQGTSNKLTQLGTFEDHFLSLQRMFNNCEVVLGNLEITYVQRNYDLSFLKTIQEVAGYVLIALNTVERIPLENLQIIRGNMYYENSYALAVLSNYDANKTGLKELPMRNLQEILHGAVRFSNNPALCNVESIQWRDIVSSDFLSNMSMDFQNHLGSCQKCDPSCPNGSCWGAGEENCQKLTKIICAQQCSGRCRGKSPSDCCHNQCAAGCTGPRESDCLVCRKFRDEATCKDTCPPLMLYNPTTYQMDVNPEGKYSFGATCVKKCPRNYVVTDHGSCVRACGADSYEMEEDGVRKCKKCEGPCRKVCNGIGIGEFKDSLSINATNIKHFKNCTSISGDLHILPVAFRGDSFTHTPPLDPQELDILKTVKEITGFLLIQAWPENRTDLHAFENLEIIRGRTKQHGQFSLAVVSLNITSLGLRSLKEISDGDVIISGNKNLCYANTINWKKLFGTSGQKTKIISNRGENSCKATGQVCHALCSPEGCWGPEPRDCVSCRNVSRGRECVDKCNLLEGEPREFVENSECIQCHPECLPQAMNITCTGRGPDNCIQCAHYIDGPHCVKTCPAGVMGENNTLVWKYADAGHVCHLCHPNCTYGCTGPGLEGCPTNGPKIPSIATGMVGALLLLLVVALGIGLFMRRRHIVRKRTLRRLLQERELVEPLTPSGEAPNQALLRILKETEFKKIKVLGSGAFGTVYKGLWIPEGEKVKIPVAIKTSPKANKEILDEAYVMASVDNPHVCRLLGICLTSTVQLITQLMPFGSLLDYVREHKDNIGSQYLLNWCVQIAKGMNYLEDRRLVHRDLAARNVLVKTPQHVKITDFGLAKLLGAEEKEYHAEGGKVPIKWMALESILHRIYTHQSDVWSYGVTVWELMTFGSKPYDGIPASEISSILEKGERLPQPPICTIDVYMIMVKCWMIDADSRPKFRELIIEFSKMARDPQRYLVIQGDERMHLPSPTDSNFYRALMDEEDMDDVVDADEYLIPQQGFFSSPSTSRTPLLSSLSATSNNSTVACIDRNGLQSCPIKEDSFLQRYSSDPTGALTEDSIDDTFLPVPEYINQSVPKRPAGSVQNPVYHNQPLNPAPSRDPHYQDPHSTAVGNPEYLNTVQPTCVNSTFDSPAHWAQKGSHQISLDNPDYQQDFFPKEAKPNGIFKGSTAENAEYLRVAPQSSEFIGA
How it was run: as §1

[5] = molecular target: EGFR wildtype (WT) (Homo sapiens, UniProt P00533); test: Biochemical EGFR kinase inhibition assay (Lance Ultra TR-FRET), wildtype
EGFR wildtype (WT), sequence (P00533 25-1210): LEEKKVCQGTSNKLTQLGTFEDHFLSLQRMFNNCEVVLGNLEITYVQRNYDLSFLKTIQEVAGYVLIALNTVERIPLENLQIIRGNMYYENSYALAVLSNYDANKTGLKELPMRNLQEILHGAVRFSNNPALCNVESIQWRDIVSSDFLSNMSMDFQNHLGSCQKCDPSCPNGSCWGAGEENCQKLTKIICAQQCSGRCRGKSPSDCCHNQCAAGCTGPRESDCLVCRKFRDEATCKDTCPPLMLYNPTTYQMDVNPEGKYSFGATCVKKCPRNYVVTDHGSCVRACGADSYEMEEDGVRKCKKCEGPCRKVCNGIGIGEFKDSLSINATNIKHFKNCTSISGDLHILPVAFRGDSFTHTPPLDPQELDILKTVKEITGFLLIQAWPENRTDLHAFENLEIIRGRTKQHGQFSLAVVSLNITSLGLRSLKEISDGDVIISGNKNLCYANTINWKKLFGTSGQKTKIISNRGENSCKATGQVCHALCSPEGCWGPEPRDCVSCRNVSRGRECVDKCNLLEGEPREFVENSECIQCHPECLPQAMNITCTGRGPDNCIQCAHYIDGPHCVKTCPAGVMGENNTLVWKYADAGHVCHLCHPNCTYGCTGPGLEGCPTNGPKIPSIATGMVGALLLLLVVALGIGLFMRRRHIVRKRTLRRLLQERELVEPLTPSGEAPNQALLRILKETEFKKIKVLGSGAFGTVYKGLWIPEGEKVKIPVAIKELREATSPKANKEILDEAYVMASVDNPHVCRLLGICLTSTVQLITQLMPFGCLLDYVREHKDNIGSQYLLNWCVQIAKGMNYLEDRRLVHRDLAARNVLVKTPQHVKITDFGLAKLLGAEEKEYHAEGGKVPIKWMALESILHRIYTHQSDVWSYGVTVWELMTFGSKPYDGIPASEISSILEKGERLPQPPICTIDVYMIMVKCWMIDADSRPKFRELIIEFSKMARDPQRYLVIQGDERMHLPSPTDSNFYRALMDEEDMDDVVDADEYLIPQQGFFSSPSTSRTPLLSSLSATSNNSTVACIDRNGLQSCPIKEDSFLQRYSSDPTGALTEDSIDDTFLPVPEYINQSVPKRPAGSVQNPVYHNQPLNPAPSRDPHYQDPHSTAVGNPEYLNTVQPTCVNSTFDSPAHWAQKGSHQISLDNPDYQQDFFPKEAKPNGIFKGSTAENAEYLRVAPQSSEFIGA
How it was run: as §1

[6] = IC50 Del19/T790M/C797S (nM), 100 μM ATP
[7] = Km ATP, read-out: IC50 Del19/T790M/C797S (nM), Km ATP
[8] = IC50 L858R/C797S (nM), 100 μM ATP
[9] = Km ATP, read-out: IC50 L858R/C797S (nM), Km ATP
[10] = IC50 L858R/T790M/C797S (nM), 100 μM ATP
[11] = Km ATP, read-out: IC50 L858R/T790M/C797S (nM), Km ATP
[12] = IC50 Del19/C797S (nM), 100 μM ATP
[13] = Km ATP, read-out: IC50 Del19/C797S (nM), Km ATP
[14] = Km ATP, read-out: IC50 WT (nM), Km ATP
[15] = Km ATP, read-out: IC50 Del19/T790M/C797S (nM) Km ATP
[16] = Km ATP, read-out: IC50 L858R/C797S (nM) Km ATP
[17] = Km ATP, read-out: IC50 L858R/T790M/C797S (nM) Km ATP
[18] = Km ATP, read-out: IC50 Del19/C797S (nM) Km ATP
[19] = Km ATP, read-out: IC50 WT (nM) Km ATP
[20] = ATP at Km, read-out: IC50 Del19/T790M/C797S (nM), Km ATP
[21] = ATP at Km, read-out: IC50 L858R/C797S (nM), Km ATP
[22] = ATP at Km, read-out: IC50 L858R/T790M/C797S (nM), Km ATP
[23] = ATP at Km, read-out: IC50 Del19/C797S (nM), Km ATP
[24] = ATP at Km, read-out: IC50 WT (nM), Km ATP

EGFR Del19/T790M/C797S, sequence (P00533 with tags, fused parts or gaps DEL746-750/T790M/C797S): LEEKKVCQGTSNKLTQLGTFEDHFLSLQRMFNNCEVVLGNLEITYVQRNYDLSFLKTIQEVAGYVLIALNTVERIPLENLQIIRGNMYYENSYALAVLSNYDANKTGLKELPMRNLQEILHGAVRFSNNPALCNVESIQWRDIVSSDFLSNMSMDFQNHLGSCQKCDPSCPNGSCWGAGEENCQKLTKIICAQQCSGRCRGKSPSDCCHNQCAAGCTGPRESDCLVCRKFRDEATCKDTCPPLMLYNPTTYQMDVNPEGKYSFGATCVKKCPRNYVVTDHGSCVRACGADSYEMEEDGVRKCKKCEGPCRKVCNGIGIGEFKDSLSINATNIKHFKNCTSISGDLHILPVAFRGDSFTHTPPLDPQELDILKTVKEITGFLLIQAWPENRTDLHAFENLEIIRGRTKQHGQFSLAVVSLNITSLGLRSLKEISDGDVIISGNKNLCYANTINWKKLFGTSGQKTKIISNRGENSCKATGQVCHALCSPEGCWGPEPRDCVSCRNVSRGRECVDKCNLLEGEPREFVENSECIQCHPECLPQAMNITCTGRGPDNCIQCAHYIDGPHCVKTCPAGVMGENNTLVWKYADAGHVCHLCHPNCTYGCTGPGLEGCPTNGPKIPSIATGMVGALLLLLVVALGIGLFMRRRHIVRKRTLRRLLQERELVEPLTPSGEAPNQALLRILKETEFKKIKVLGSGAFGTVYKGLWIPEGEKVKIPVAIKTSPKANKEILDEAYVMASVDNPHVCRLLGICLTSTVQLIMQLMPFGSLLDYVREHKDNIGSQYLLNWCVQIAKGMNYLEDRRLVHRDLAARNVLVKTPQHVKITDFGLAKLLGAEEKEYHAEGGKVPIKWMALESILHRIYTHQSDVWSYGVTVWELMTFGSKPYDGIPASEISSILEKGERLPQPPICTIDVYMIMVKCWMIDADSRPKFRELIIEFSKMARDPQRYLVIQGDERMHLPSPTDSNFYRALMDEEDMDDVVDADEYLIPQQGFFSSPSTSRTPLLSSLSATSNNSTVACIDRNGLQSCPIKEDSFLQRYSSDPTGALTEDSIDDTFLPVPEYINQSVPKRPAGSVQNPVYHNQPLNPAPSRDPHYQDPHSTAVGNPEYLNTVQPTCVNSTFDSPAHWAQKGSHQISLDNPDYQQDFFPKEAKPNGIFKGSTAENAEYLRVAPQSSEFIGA

Row | IC50 [1, 6] [nM] | IC50 [1, 7] [nM] | IC50 [2, 8] [nM] | IC50 [2, 9] [nM] | IC50 [3, 10] [nM] | IC50 [3, 11] [nM] | IC50 [4, 12] [nM] | IC50 [4, 13] [nM] | IC50 ([5]; IC50 WT (nM), 100 μM ATP) [nM] | IC50 [5, 14] [nM] | IC50 [1, 15] [nM] | IC50 [2, 16] [nM] | IC50 [3, 17] [nM] | IC50 [4, 18] [nM] | IC50 [5, 19] [nM] | IC50 [1, 20] [nM] | IC50 [2, 21] [nM] | IC50 [3, 22] [nM] | IC50 [4, 23] [nM] | IC50 [5, 24] [nM] | SMILES
1 | 0.1 | 0.1 | 39.3 | 0.8 | 0.1 | 0.1 | 1.3 | 0.6 | > 10000 | 3.7 |  |  |  |  |  |  |  |  |  |  | CC1(CO)CCN(c2cc(Nc3ccnc(-c4cnn(S(=O)(=O)C5CC5)c4)n3)ncc2C#CC2CCS(=O)(=O)C2)CC1 (stereo not shown) [Example 437, 3-((6-((2-(1-(Cyclopropylsulfonyl)-1H-pyrazol-4-yl)pyrimidin-4-yl)amino)-4-(4-(hydroxymethyl)-4-methylpiperidin-1-yl)pyridin-3-yl)ethynyl)tetrahydrothiophene 1,1-dioxide]
2 | 0.4 |  | 176 |  | 0.9 |  | 8.4 |  | > 10000 |  | 0.4 | 3.9 | 0.2 | 5.9 | 31.3 |  |  |  |  |  | CN(C)CCNC1CCN(c2cc(Nc3ccnc(-c4cnn(S(=O)(=O)C5CC5)c4)n3)ncc2C#Cc2ccn(C)n2)CC1 [Example 142, N^1-(1-(2-((2-(1-(Cyclopropylsulfonyl)-1H-pyrazol-4-yl)pyrimidin-4-yl)amino)-5-((1-methyl-1H-pyrazol-3-yl)ethynyl)pyridin-4-yl)piperidin-4-yl)-N^2,N^2-dimethylethane-1,2-diamine]
3 | 46.5 |  | 3900 |  | 94.2 |  | 249 |  | > 10000 |  |  |  |  |  |  |  |  |  |  |  | CC1(C#Cc2cnc(Nc3ccnc(-c4cnn(S(=O)(=O)C5CC5)c4)n3)cc2NC[C@H]2CC[C@H](CO)CC2)CC1 [Example 405, ((1r,4r)-4-(((2-((2-(1-(Cyclopropylsulfonyl)-1H-pyrazol-4-yl)pyrimidin-4-yl)amino)-5-((1-methylcyclopropyl)ethynyl)pyridin-4-yl)amino)methyl)cyclohexyl)methanol]
4 | 3.9 | 2 | 1750 | 50.1 | 2.4 | 1.3 | 38.2 | 26.1 | > 10000 | 295 |  |  |  |  |  |  |  |  |  |  | O=S(=O)(C1CC1)n1cc(-c2nccc(Nc3cc(N[C@H]4CC[C@@H](CO)CC4)c(C#Cc4cnn(C(F)(F)F)c4)cn3)n2)cn1 [Example 336, ((1s,4s)-4-((2-((2-(1-(Cyclopropylsulfonyl)-1H-pyrazol-4-yl)pyrimidin-4-yl)amino)-5-((1-(trifluoromethyl)-1H-pyrazol-4-yl)ethynyl)pyridin-4-yl)amino)cyclohexyl)methanol]
5 | 0.5 |  | 7.7 |  | 0.5 |  | 0.5 |  | 5310 |  |  |  |  |  |  | 0.3 | 1.8 | 0.1 | 0.7 | 5 | CC1(CO)CCN(c2cc(Nc3ccnc(-c4cnn(S(=O)(=O)C5CC5)c4)n3)ncc2C#Cc2ccncc2)CC1 [Example 258, (1-(2-((2-(1-(Cyclopropylsulfonyl)-1H-pyrazol-4-yl)pyrimidin-4-yl)amino)-5-(pyridin-4-ylethynyl)pyridin-4-yl)-4-methylpiperidin-4-yl)methanol]
6 | 0.4 |  | 4.3 |  | 0.4 |  | 0.6 |  | 1080 |  | 0.4 | 0.3 | 0.1 | 0.3 | 3.6 |  |  |  |  |  | CN(C)CCCn1cc(C#Cc2cnc(Nc3ccnc(-c4cnn(S(=O)(=O)C5CC5)c4)n3)cc2N[C@H]2CC[C@@H](O)CC2)cn1 [Example 123, (1s,4s)-4-((2-((2-(1-(Cyclopropylsulfonyl)-1H-pyrazol-4-yl)pyrimidin-4-yl)amino)-5-((1-(3-(dimethylamino)propyl)-1H-pyrazol-4-yl)ethynyl)pyridin-4-yl)amino)cyclohexan-1-ol]
7 | 1 |  | 8.1 |  | 2.1 |  | 3.1 |  | > 10000 |  | 1 | 1.5 | 0.6 | 3 | 12.8 |  |  |  |  |  | O=S(=O)(C1CC1)n1cc(-c2nccc(Nc3cc(N4CCC(F)(CO)CC4)c(C#Cc4cnn(C5CCOCC5)c4)cn3)n2)cn1 [Example 96, (1-(2-((2-(1-(Cyclopropylsulfonyl)-1H-pyrazol-4-yl)pyrimidin-4-yl)amino)-5-((1-(tetrahydro-2H-pyran-4-yl)-1H-pyrazol-4-yl)ethynyl)pyridin-4-yl)-4-fluoropiperidin-4-yl)methanol]
8 | 0.5 |  | 169 |  | 0.7 |  | 3.3 |  | > 10000 |  |  |  |  |  |  | 0.5 | 3.4 | 0.2 | 2.2 | 26.1 | O=S(=O)(C1CC1)n1cc(-c2nccc(Nc3cc(N[C@H]4CC[C@@H](O)CC4)c(C#Cc4ncc(CN5CCOCC5)cn4)cn3)n2)cn1 [Example 194, (1s,4s)-4-((2-((2-(1-(Cyclopropylsulfonyl)-1H-pyrazol-4-yl)pyrimidin-4-yl)amino)-5-((5-(morpholinomethyl)pyrimidin-2-yl)ethynyl)pyridin-4-yl)amino)cyclohexan-1-ol]
9 | 0.5 | 0.4 | 90.8 | 4 | 0.7 | 0.2 | 3.2 | 1 | 8720 | 7.7 |  |  |  |  |  |  |  |  |  |  | CC1OCCC1C#Cc1cnc(Nc2ccnc(-c3cnn(S(=O)(=O)C4CC4)c3)n2)cc1NC1CCC(O)CC1 (stereo not shown) [Example 433, (1 s,4s)-4-((2-((2-(1-(cyclopropylsulfonyl)-1H-pyrazol-4-yl)pyrimidin-4-yl)amino)-5-((2-methyltetrahydrofuran-3-yl)ethynyl)pyridin-4-yl)amino)cyclohexan-1-ol]
10 | 1.4 |  | 68.7 |  | 5.1 |  | 107 |  | > 10000 |  |  |  |  |  |  |  |  |  |  |  | CNC1CCN(c2cc(Nc3ccnc(-c4cnn(S(=O)(=O)C5CC5)c4)n3)ncc2C#Cc2cnn(C)c2)CC1 [Example 130, 2-(1-(Cyclopropylsulfonyl)-1H-pyrazol-4-yl)-N-(5-((1-methyl-1H-pyrazol-4-yl)ethynyl)-4-(4-(methylamino)piperidin-1-yl)pyridin-2-yl)pyrimidin-4-amine]
11 |  |  |  |  |  |  |  |  |  |  |  |  |  |  |  | 1.7 | 141 | 1.2 | 36.7 | 292 | CC(C)Nc1cc(Nc2ccnc(-c3cnn(S(=O)(=O)C4CC4)c3)n2)ncc1C#CCN1CCS(=O)(=O)CC1 [Example 201, 4-(3-(6-((2-(1-(Cyclopropylsulfonyl)-1H-pyrazol-4-yl)pyrimidin-4-yl)amino)-4-(isopropylamino)pyridin-3-yl)prop-2-yn-1-yl)thiomorpholine 1,1-dioxide]
12 | 8.8 |  | 547 |  | 10.6 |  | 38.2 |  | > 10000 |  |  |  |  |  |  | 5.5 | 21.6 | 3.2 | 25.5 | 650 | O=S(=O)(C1CC1)n1cc(-c2nccc(Nc3cc(N[C@H]4CCC[C@H](O)C4)c(C#Cc4ccc(CN5CCOCC5)cc4)cn3)n2)cn1 [Example 161, (1 S,3S)-3-((2-((2-(1-(Cyclopropylsulfonyl)-1H-pyrazol-4-yl)pyrimidin-4-yl)amino)-5-((4-(morpholinomethyl)phenyl)ethynyl)pyridin-4-yl)amino)cyclohexan-1-ol]
13 | 0.4 | 0.4 | 53.4 | 4.3 | 0.4 | 0.2 | 2.3 | 2.1 | 4970 | 9.2 |  |  |  |  |  |  |  |  |  |  | CN(C)CCC1CCN(c2cc(Nc3ccnc(-c4cnn(S(=O)(=O)C5CC5)c4)n3)ncc2C#Cc2cnn(C(F)(F)F)c2)CC1 [Example 335, 2-(1-(Cyclopropylsulfonyl)-1H-pyrazol-4-yl)-N-(4-(4-(2-(dimethylamino)ethyl)piperidin-1-yl)-5-((1-(trifluoromethyl)-1H-pyrazol-4-yl)ethynyl)pyridin-2-yl)pyrimidin-4-amine]
